Here are results for one compound from article PMC9423655, “Huntington’s disease phenotypes are improved via mTORC1 modulation by small molecule therapy” (PLoS ONE, 2022).

Series [1] in a line: Pharmacokinetic analysis of NV-5297 in mice (i.v. and oral, LC-MS/MS). Format: in vivo. The settings on record: C57BL/6 mice. Here is the method:
[…] Mice were given free access to food and water for both i.v. and orally dosed groups. After dosing, tail-vein blood was collected at the indicated time points into K2EDTA tubes and centrifuged at 2,000g for 5 minutes to collect serum. Levels of NV-5297 were quantified via LC-MS/MS. WinNonlin V 6.2 statistics software (Pharsight Corporation, California, USA) was used to generate pharmacokinetics parameters using non-compartmental model.
PK parameters of NV-5297 after an IV dose at 1 mg/kg
PK parameters Unit Estimate
PK parameters of NV-5297 after an OD dose at 5 mg/kg

Another series deals with Npr13KO HEK293T cells. Description: mTORC1 activation (p70S6K1) in HEK293T cells null for GATOR1 component Nprl3. The note with it: leucine-starved 50 minutes, treatment 10 minutes. Format: cell-based. Here is the method: All cell lines were cultured in DMEM (Corning, #MT10013CV) supplemented with 10% heat-inactivated FBS (Gibco, #16140–071). All cell lines were maintained at 37°C and 5% CO2. For amino acid starvation, cells were rinsed once with and incubated Amino acid-free RPMI (US Biologicals, #R8999-04A) supplemented with 10% dialyzed FBS (Gibco, #26400044) for 50 min followed by treatment with NV-5297, leucine, or vehicle for 10 minutes. For leucine starvation, cells were rinsed once with and incubated in leucine-free DMEM (AthenaES, #0420) supplemented with 10% dialyzed FBS (Gibco, #26400044) for 50 minuted followed by treatment with NV-5297, leucine, or vehicle for 10 minutes.
To ascertain if Sestrins and the GATOR pathway are required for NV-5297 activity, we tested mTORC1 activation in cells null for either all three Sestrin isoforms [SesnTKO] or for the GATOR1 component Npr13 [Npr13KO] [44]. […]
(A) Activation of the mTORC1 pathway by NV-5297. […] Representative immunoblots of ^T389pS6K1 and quantification of the normalized level of ^T389pS6K1 from 8 independent experiments (F) show TORC1 activity in unedited HEK-293T cells, HEK-293T cells deficient for Sestrin 1 (Sesn1), 2 (Sesn2) and 3 (Sesn3) (D) or HEK-293T cells deficient for the GATOR1 component Nprl3 (E) after 50 minutes leucine starvation followed by the addition of vehicle, NV-5297 or leucine for 10 minutes. […]

The subject of the next series is N171-82Q HD mice. Description: Chronic 6-week treatment: striatal volume and MSN area (DARPP-32 histology). In kind it is in vivo. The settings on record: N171-82Q mice, 160 mg/kg daily 6 weeks. As for the experimental part: Mice were perfused with PBS, and tissues were fixed in 4% paraformaldehyde for at least 48 hours. Brains were cryoprotected in a 30% sucrose solution for 24 hours and cryosectioned to 40 μm on a Leica SM2010R microtome. Each section through the striatum was collected and floated out in 30% ethylene glycol/15% sucrose solution sequentially in a 12-well plate. Once sections had been placed in each well, deeper sequential sections were added to wells in the same order, leading to each well containing 7 sections, 480 μm apart. Hearts were bisected transversely, and the apical halves were processed and embedded in paraffin. Heart tissue was sectioned to 5 μm on a Microm HM 355S (Thermo) microtome. […]
Striatal volume were estimated by the Cavalieri method on low-power digital images of DARPP-32-stained sections in ImageJ. A 5000 μm^2 area-per-point grid was superimposed randomly over the image, and number of points overlapping the striatum in each section (5 per animal) was counted. The volume was then calculated using the formula V = ∑p∙t∙A(p), where V = estimated volume, p = points per section, t = space between sections, and A(p) = area-per-point. […]
Average MSN area was calculated from high-power digital images of DARPP-32-stained sections in ImageJ. […] At least 700 cells were measured per brain, and the average MSN area was determined per treatment group.

Setting [2] is: male, mouse, serum, IV dose at 1 mg/kg.
[3] abbreviates: male, mouse, serum, OD (oral) dose at 5 mg/kg.

Read-outs that look alike come from different tables or passages of the source.

In series [1] (OD (oral) dose at 5 mg/kg), `CC(C)(C[C@H](N)C(=O)O)C(F)(F)F` [NV-5297, (S)-2-amino-5,5,5-trifluoro-4,4-dimethylpentanoic acid] registered a Cmax of 2893 ng/mL. For the same compound, the bioavailability came to 100% in series [1] (male, mouse, serum, po, 160 mg/kg, refers to S1 Table, read-out: oral bioavailability) and 104% in series [1] (male, mouse, serum, OD (oral) dose at 5 mg/kg vs IV 1 mg/kg, read-out: F (bioavailability)). Further, the half-life in series [1] (male, mouse, serum, oral, 160 mg/kg, refers to S1 Table, read-out: half-life (converted)) is roughly 3 h; in series [1] (male, mouse, serum, IV dose at 1 mg/kg, read-out: Terminal T1/2 (converted)), 1.45 h; in series [1] (male, mouse, serum, OD (oral) dose at 5 mg/kg, read-out: Terminal T1/2 (converted)), 2.86 h. Also, the Tmax is 0.5 h in series [1] (male, mouse, serum, oral, 160 mg/kg, refers to S1 Table, read-out: time to maximal concentration (tmax) (converted)) and 0.5 h in series [1] (male, mouse, serum, OD (oral) dose at 5 mg/kg, read-out: Tmax). Besides, the AUC(0-inf) came to 1240 ng·h/mL in series [1] (setting [2]) and 6470 ng·h/mL in series [1] (setting [3]). The values for the AUC(0-t) in series [1] (setting [2]) and in series [1] (setting [3]) were 1220 ng·h/mL and 6460 ng·h/mL, respectively. For the same compound, the MRT inf in series [1] (setting [2]) is 1.56 h. Further, the clearance in series [1] (setting [2]) is 13.3 mL/min/kg. Also, in series [1] (male, mouse, serum, IV dose at 1 mg/kg, read-out: Vss), the Vd worked out at 1.26 L/kg. Further, the p70S6K1 levels result in the series on Npr13KO HEK293T cells is recorded as “remained unchanged”. In the series on N171-82Q HD mice, the “medium spiny neuron area” value is “no change”. In addition, the “striatal volume relative to vehicle” value with N171-82Q HD mice is on record as “significant increases”.
